Results published in ChEMBL document CHEMBL5120815, “Synthesis of novel dual target inhibitors of PARP and EGFR and their antitumor activities in triple negative breast cancers” (Bioorg Med Chem, 2022).
Active and inactive are the calls of the source. The rule behind the calls is not given here.

Experiments:
HCC1937 = test: Cytotoxicity against human HCC1937 cells assessed as inhibition of cell growth incubated for 48 hrs by MTT assay; type: functional, cell-based; details: HCC1937, 48 h
MCF7 [1] = test: Synergistic cytotoxicity against human MCF7 cells harbouring wild type BRCA1/2 assessed as combination index at 25 uM incubated for 48 hrs in presence of 0.8 uM adriamycin by MTT assay; type: functional
MCF7 [2] = test: Potentiation of adriamycin-induced cytotoxicity in human MCF7 cells harbouring wild type BRCA1/2 assessed as inhibition of cell growth at 25 uM incubated for 48 hrs in presence of 0.8 uM adriamycin by MTT assay relative to control; type: functional
SK-BR-3 = test: Cytotoxicity against human SK-BR-3 cells harbouring wild type BRCA1/2 assessed as inhibition of cell growth incubated for 48 hrs by MTT assay; type: functional, cell-based; details: SK-BR-3, 48 h
MDA-MB-231 = test: Cytotoxicity against human MDA-MB-231 cells assessed as inhibition of cell growth incubated for 48 hrs by MTT assay; type: functional, cell-based; details: MDA-MB-231, 48 h
MCF7 [3] = test: Cytotoxicity against human MCF7 cells harbouring wild type BRCA1/2 assessed as inhibition of cell growth incubated for 48 hrs by MTT assay; type: functional, cell-based; details: MCF7, 48 h
MX1 = test: Cytotoxicity against human MX1 cells harbouring BRCA1 mutant assessed as inhibition of cell growth incubated for 48 hrs by MTT assay; type: functional, cell-based; details: MX1, 48 h
MCF7 [4] = test: Cytotoxicity against human MCF7 cells harbouring wild type BRCA1/2 assessed as inhibition of cell growth at 25 uM incubated for 48 hrs by MTT assay relative to control; type: functional
MCF7 [5] = test: Cytotoxicity against human MCF7 cells harbouring wild type BRCA1/2 assessed as inhibition of cell growth at 17.5 uM incubated for 48 hrs by MTT assay relative to control; type: functional
MCF7 [6] = test: Synergistic cytotoxicity against human MCF7 cells harbouring wild type BRCA1/2 assessed as combination index at 17.5 uM incubated for 48 hrs in presence of 0.8 uM adriamycin by MTT assay; type: functional
MCF7 [7] = test: Potentiation of adriamycin-induced cytotoxicity in human MCF7 cells harbouring wild type BRCA1/2 assessed as inhibition of cell growth at 17.5 uM incubated for 48 hrs in presence of 0.8 uM adriamycin by MTT assay relative to control; type: functional
MDA-MB-468 = test: Cytotoxicity against human MDA-MB-468 cells assessed as inhibition of cell growth incubated for 48 hrs by MTT assay; type: functional, cell-based; details: MDA-MB-468, 48 h
MCF7 [8] = test: Potentiation of adriamycin-induced cytotoxicity in human MCF7 cells harbouring wild type BRCA1/2 assessed as inhibition of cell growth at 10 uM incubated for 48 hrs in presence of 0.8 uM adriamycin by MTT assay relative to control; type: functional
MCF7 [9] = test: Cytotoxicity against human MCF7 cells harbouring wild type BRCA1/2 assessed as inhibition of cell growth at 10 uM incubated for 48 hrs by MTT assay relative to control; type: functional
MCF7 [10] = test: Synergistic cytotoxicity against human MCF7 cells harbouring wild type BRCA1/2 assessed as combination index at 10 uM incubated for 48 hrs in presence of 0.8 uM adriamycin by MTT assay; type: functional
[11] = target: Poly [ADP-ribose] polymerase 1 (Homo sapiens) (UniProt P09874); test: Inhibition of PARP-1 (unknown origin) at 0.1 uM preincubated for 10 mins followed by PARP cocktail addition and measured after 60 mins by colorimetric assay relative to control; details: time 70.0 min
Sequence of Poly [ADP-ribose] polymerase 1 (Homo sapiens) (P09874 whole entry): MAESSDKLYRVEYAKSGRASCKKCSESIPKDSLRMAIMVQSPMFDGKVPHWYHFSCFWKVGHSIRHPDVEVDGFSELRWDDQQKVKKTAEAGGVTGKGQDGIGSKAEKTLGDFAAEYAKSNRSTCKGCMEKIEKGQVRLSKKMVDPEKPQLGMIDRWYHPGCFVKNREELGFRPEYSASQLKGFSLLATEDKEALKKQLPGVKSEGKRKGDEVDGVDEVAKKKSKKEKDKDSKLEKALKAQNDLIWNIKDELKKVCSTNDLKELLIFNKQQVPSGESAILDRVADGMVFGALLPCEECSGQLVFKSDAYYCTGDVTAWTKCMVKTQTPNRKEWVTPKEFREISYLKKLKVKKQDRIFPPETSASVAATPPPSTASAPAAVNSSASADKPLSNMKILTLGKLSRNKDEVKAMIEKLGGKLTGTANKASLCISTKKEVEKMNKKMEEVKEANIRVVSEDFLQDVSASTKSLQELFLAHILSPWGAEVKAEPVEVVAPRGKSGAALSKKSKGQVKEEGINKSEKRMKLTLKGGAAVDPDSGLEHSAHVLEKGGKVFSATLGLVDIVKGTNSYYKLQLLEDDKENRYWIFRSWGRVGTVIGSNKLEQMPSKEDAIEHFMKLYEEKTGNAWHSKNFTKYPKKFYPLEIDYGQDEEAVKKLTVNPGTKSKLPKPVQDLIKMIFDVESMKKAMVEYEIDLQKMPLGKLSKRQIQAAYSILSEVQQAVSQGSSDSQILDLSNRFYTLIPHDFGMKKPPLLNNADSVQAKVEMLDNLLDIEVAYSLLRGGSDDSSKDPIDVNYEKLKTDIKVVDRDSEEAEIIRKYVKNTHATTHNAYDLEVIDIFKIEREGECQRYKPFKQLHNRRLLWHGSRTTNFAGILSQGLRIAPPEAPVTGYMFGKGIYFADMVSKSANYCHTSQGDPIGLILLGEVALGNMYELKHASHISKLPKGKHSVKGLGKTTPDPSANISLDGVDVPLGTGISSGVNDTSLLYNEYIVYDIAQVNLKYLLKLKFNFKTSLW

[12] = target: Epidermal growth factor receptor (Homo sapiens) (UniProt P00533); test: Inhibition of human EGFR in human HCC1937 cells assessed as reduction in phosphorylated EGFR level at 10 uM incubated for 48 hrs by Western blot analysis; type: cell-based
Sequence of Epidermal growth factor receptor (Homo sapiens) (P00533 whole entry): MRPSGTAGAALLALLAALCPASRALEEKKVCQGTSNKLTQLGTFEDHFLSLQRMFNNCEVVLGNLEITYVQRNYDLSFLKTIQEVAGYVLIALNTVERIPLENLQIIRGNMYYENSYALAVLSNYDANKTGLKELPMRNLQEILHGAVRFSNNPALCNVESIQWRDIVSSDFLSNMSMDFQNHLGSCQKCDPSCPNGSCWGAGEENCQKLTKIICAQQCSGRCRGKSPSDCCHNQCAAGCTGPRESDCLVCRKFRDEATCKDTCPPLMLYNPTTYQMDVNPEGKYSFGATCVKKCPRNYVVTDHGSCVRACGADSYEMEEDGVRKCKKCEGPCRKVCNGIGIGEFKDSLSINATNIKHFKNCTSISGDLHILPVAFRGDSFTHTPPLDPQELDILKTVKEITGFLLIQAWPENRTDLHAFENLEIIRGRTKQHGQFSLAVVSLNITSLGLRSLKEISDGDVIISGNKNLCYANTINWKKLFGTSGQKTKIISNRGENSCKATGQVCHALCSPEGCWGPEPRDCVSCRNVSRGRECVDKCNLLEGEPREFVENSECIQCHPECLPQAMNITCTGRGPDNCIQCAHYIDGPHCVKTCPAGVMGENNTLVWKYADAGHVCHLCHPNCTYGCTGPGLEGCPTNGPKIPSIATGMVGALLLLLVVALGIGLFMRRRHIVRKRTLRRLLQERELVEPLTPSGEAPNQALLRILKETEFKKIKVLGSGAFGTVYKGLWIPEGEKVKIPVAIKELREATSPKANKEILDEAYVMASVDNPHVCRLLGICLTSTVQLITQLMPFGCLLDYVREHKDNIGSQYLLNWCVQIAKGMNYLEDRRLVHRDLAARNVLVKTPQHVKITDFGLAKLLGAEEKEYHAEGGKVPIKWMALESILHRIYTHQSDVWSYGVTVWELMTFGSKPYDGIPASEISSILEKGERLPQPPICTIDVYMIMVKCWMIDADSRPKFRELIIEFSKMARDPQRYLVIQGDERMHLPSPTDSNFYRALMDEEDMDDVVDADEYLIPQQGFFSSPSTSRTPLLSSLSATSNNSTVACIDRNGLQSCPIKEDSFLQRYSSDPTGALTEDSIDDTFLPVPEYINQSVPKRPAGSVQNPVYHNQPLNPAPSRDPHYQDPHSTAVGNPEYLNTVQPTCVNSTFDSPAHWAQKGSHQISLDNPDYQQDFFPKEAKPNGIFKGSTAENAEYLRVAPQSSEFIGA

[13] = target: Epidermal growth factor receptor (Homo sapiens) (UniProt P00533); test: Inhibition of human EGFR in human HCC1937 cells assessed as reduction in EGFR level at 10 uM incubated for 48 hrs by Western blot analysis; type: cell-based
[14] = target: Poly [ADP-ribose] polymerase 1 (Homo sapiens) (UniProt P09874); test: Inhibition of PARP-1 in human MCF7 cells assessed as inhibition of PARylation by measuring reduction in PARP protein expression at 1 uM pretreated with adriamycin followed by compound addition and measured after 48 hrs by Western bot analysis; type: cell-based

inhibition [11] | inhibition [12] | inhibition [13] | inhibition [14] | Structure (SMILES) | IC50 (HCC1937) | CI (MCF7 [1]) | inhibition at 25 µM (MCF7 [2]) | IC50 (SK-BR-3) | IC50 (MDA-MB-231) | IC50 (MCF7 [3]) | IC50 (MX1) | inhibition at 25 µM (MCF7 [4]) | inhibition at 17.5 µM (MCF7 [5]) | CI (MCF7 [6]) | inhibition at 17.5 µM (MCF7 [7]) | IC50 (MDA-MB-468) | inhibition at 10 µM (MCF7 [8]) | inhibition at 10 µM (MCF7 [9]) | CI (MCF7 [10])
– | – | – | – | CCN1CCN(c2ncc3c(n2)CCN(C(=O)c2cc(Cc4n[nH]c(=O)c5ccccc45)ccc2F)C3)CC1 | 137 µM | 0.2 | 45.7% | > 200 µM | > 200 µM | 90.1 µM | 88.8 µM | 9.13% | – | – | – | – | – | – | –
– | – | – | – | O=C(c1cc(Cc2n[nH]c(=O)c3ccccc23)ccc1F)N1CCc2nc(N3CCCCC3)ncc2C1 | > 200 µM | – | – | 24.5 µM | > 200 µM | 89.8 µM | 22.7 µM | – | 18.9% | 0.44 | 43% | – | – | – | –
– | – | – | – | O=C(c1cc(Cc2n[nH]c(=O)c3ccccc23)ccc1F)N1CCc2nc(N3CCCC3)ncc2C1 | 7.81 µM | 0.61 | 40.9% | > 200 µM | > 200 µM | 144 µM | 77 µM | 24.9% | – | – | – | – | – | – | –
– | – | – | – | O=C(c1cc(Cc2n[nH]c(=O)c3ccccc23)ccc1F)N1CCN(C(=O)C2CC2)CC1 [OLAPARIB] | > 200 µM | 0.88 | 27.9% | – | > 200 µM | 409 µM | – | 23.5% | – | – | – | 200 µM | – | – | –
– | – | – | – | CCN(CC)c1ncc2c(n1)CCN(C(=O)c1cc(Cc3n[nH]c(=O)c4ccccc34)ccc1F)C2 | 66.8 µM | – | – | > 200 µM | > 200 µM | 55.8 µM | 28.4 µM | – | – | – | – | – | 37.5% | 21.6% | 0.82
– | – | – | – | CCCN(CCC)c1ncc2c(n1)CCN(C(=O)c1cc(Cc3n[nH]c(=O)c4ccccc34)ccc1F)C2 | 20.3 µM | 0.36 | 36.6% | > 200 µM | > 200 µM | 126 µM | 92.9 µM | 11.9% | – | – | – | – | – | – | –
– | – | – | – | CCCCN(CCCC)c1ncc2c(n1)CCN(C(=O)c1cc(Cc3n[nH]c(=O)c4ccccc34)ccc1F)C2 | > 200 µM | 0.79 | 39.6% | 21.2 µM | > 200 µM | 106 µM | 13.3 µM | 27.4% | – | – | – | – | – | – | –
– | – | – | – | CN1CCN(c2ncc3c(n2)CCN(C(=O)c2cc(Cc4n[nH]c(=O)c5ccccc45)ccc2F)C3)CC1 | 53.4 µM | 0.67 | 55.8% | 95.7 µM | > 200 µM | 72.8 µM | 46.3 µM | 37.4% | – | – | – | – | – | – | –
92.1% | Active | Active | Active | O=C(c1cc(Cc2n[nH]c(=O)c3ccccc23)ccc1F)N1CCc2nc(N3CCOCC3)ncc2C1 | 3.23 µM | 0.39 | 47.8% | 50 µM | > 200 µM | 199 µM | 18.7 µM | 18.6% | – | – | – | 15.6 µM | – | – | –
– | – | – | – | CN(C)CCN(C)c1ncc2c(n1)CCN(C(=O)c1cc(Cc3n[nH]c(=O)c4ccccc34)ccc1F)C2 | > 200 µM | 0.86 | 43.9% | > 200 µM | > 200 µM | 122 µM | 66.9 µM | 24.6% | – | – | – | – | – | – | –
